From article PMC10440361 (Current Research in Pharmacology and Drug Discovery, 2023)
Like-named read-outs stand apart in the source and are kept apart here.

How the values were obtained:
[1] = system: adult male cynomolgus monkeys; assay type: in vivo; details: for average increase in MAP between 30 min and 5 h: vehicle 3.5 mmHg; for maximum MAP values (increase from baseline) / maximum Δ MAP: telemetered cynomolgus monkeys; for maximum MAP values (increase from baseline): IV vehicle 22.2 ± 3.5 mmHg; for time for which increases from baseline in MAP above 20 mmHg were sustained: average; for average increase in MAP between 30 min and 5 h after administration: vehicle SC 0.8 mmHg; for maximum Δ MAP: vehicle SC 25.9 ± 1.6 mmHg
human V1a receptors = details: read-out: EC50 for human V1a; ref Croston et al., 2023; cited from earlier work
human V2 receptors = details: ref Croston et al., 2023, cited from earlier work
adult male Wistar rats = experiment: Skin blood flow; assay type: in vivo; details: anesthetized rats, IV infusion; discussion statement
rat V2 receptor = details: cell-based functional assays; ref Croston et al., 2023; cited from earlier work
[2] = system: adult male Sprague Dawley rats; experiment: Arterial blood pressure by telemetry after SC administration in rats; assay type: in vivo; details: conscious telemetered Sprague Dawley rats, n=6

## N-[N-(N-glycylglycyl) glycyl]-8-L-lysinevasopressin [Terlipressin]
[1]; monkeys, IV bolus 0.03 mg/kg, on average
  time past which MAP increases from baseline above 20 mmHg were not sustained: ≤ 30 min
[1]; monkeys, IV bolus 0.03 mg/kg
  average increase in MAP between 30 min and 5 h: 6.0 mmHg
[1]; monkeys, IV bolus 0.09 mg/kg, on average
  time past which MAP increases from baseline above 20 mmHg were not sustained: ≤ 30 min
[1]; monkeys, IV bolus 0.09 mg/kg
  average increase in MAP between 30 min and 5 h: 5.8 mmHg
[1]; monkeys, IV bolus 0.17 mg/kg, on average
  time past which MAP increases from baseline above 20 mmHg were not sustained: ≤ 75 min
[1]; monkeys, IV bolus 0.17 mg/kg
  average increase in MAP between 30 min and 5 h: 14.6 mmHg
[1]; monkeys, IV bolus 0.34 mg/kg, on average
  time past which MAP increases from baseline above 20 mmHg were not sustained: ≤ 90 min
[1]; monkeys, IV bolus 0.34 mg/kg
  average increase in MAP between 30 min and 5 h: 14.7 mmHg
[1]; monkeys, IV bolus, all treatment groups 0.03 to 0.34 mg/kg, on average
  time after administration by which ΔMAP was negligible: ≤ 150 min
[1]; IV bolus 0.03 mg/kg
  maximum MAP values (increase from baseline): 29.6 ± 3.6 mmHg
[1]; IV bolus 0.09 mg/kg
  maximum MAP values (increase from baseline): 29.9 ± 6.2 mmHg
[1]; IV bolus 0.17 mg/kg
  maximum MAP values (increase from baseline): 50.8 ± 5.6 mmHg
[1]; IV bolus 0.34 mg/kg
  maximum MAP values (increase from baseline): 41.2 ± 7.5 mmHg

## [Phe2,Dab(Lys(Lys(Ac)-[Ala6,Glu9]))8]VT [OCE-205]
[1]; monkeys, SC bolus 0.01 mg/kg
  time for which increases from baseline in MAP above 20 mmHg were sustained: 150 min
  average increase in MAP between 30 min and 5 h after administration: 20.6 mmHg
[1]; monkeys, SC bolus 0.05 mg/kg
  time for which increases from baseline in MAP above 20 mmHg were sustained: 75 min
  average increase in MAP between 30 min and 5 h after administration: 18.4 mmHg
[1]; monkeys, SC bolus 0.5 mg/kg
  time for which increases from baseline in MAP above 20 mmHg were sustained: 300 min
  average increase in MAP between 30 min and 5 h after administration: 24.8 mmHg
[1]; monkeys, SC bolus 0.5 mg/kg, on average
  Δ MAP maintained throughout the 8 h of measurement: above 14 mmHg
[1]; SC bolus 0.01 mg/kg
  maximum Δ MAP: 36.1 ± 2.1 mmHg
[1]; SC bolus 0.05 mg/kg
  maximum Δ MAP: 34.9 ± 1.1 mmHg
[1]; SC bolus 0.5 mg/kg
  maximum Δ MAP: 41.6 ± 6.5 mmHg
Human V1a receptors
  EC50: 0.7 nM
Human V2 receptors; at clinically relevant concentrations
  activity at human V2 receptors: little to no activity
Human V2 receptors; cell-based functional assays
  activity at the human V2 receptor: no activity
Adult male Wistar rats
  approximately maximal decrease in SBF from baseline: ~40%
Rat V2 receptor
  activity at the rat V2 receptor: no activity
[2]; SC 0.1 mg/kg, at 1 h
  maximum increase in mean arterial blood pressure vs mean pre-test value: +22 mmHg
[2]; SC 0.6 mg/kg, at 2 h
  maximum increase in mean arterial blood pressure vs mean pre-test value: +22 mmHg
[2]; SC 4 mg/kg, at 3 and 4 h
  maximum increase in mean arterial blood pressure vs mean pre-test value: +38 mmHg
[2]; SC 20 mg/kg, at 4 h
  maximum increase in mean arterial blood pressure vs mean pre-test value: +46 mmHg
